Experimental findings from ChEMBL document CHEMBL6092217 (Eur J Med Chem, 2024) are described below.

A word on the IC50: it is the concentration at which inhibition is half-maximal. In general, Kd refers to the concentration at which binding is half-saturated.

For one assay, the system named is MCF7. As to the kind of experiment: Antiproliferative activity against human MCF7 cells assessed as cell viability incubated for 72 hrs by MTT assay. It is filed as functional, cell-based. The following applies: MCF7, 72 h. (Tetrazolium dyes change colour on reduction, which living cells bring about.)
The next assay concerns the target Tubulin. As to the kind of experiment: Inhibition of tubulin polymerization (unknown origin) in presence of GTP by fluorescence plate reader analysis. It is filed as protein-complex assay, Homo sapiens.
A short description of assay [1]: Binding affinity to porcine brain tubulin assessed as dissociation constant measured after 20 mins by fluorescence based analysis. Details: species or system Sus scrofa.
The next assay has as its system HepG2. As to the kind of experiment: Antiproliferative activity against human HepG2 cells assessed as cell viability incubated for 72 hrs by MTT assay. The class given is functional, cell-based. The following applies: HepG2, 72 h.
Assay [2] has as its system HT-29. As to the kind of experiment: Antiproliferative activity against human HT-29 cells assessed as cell viability incubated for 72 hrs by MTT assay. The class given is functional, cell-based. The following applies: HT-29, 72 h.
The test system of another assay is PC-3. Put plainly: Antiproliferative activity against human PC-3 cells assessed as cell viability incubated for 72 hrs by MTT assay. It is filed as functional, cell-based. The following applies: PC-3, 72 h.
The next assay has as its system MDA-MB-231. Put plainly: cells. The following applies: Homo sapiens, MDA-MB-231, 72 h.
The test system of another assay is RKO. Put plainly: Antiproliferative activity against human RKO cells assessed as cell viability incubated for 72 hrs by MTT assay. It is filed as functional, cell-based.
For assay [3], the system named is HT-29. As to the kind of experiment: Induction of cell cycle arrest in human HT-29 cells assessed as accumulation of cells at S phase at 10 nM incubated for 24 hrs by flow cytometry analysis (reference value: 20.8 %). The class given is functional.
Assay [4] can be described thus: Resistance index, ratio of IC50 for human A549/TxR cells to IC50 for human A549 cells. It is filed as functional.
Assay [5] relates to HT-29. As to the kind of experiment: Induction of apoptosis in human HT-29 cells assessed as late apoptotic cells at 20 nM incubated for 24 hrs by FITC/PI staining based flow cytometry analysis (reference value: 0.20%). The class given is functional. In general terms: Flow cytometry measures light scatter and fluorescence of single cells or particles in a stream.
For assay [6], the system named is HT-29. Put plainly: Induction of apoptosis in human HT-29 cells assessed as early apoptotic cells at 20 nM incubated for 24 hrs by FITC/PI staining based flow cytometry analysis (reference value: 8.14%). The class given is functional.
The subject of assay [7] is HT-29. Put plainly: Induction of cell cycle arrest in human HT-29 cells assessed as accumulation of cells at G1 phase at 10 nM incubated for 24 hrs by flow cytometry analysis (reference value: 67.6%). The class given is functional.
Assay [8] relates to HT-29. As to the kind of experiment: Induction of apoptosis in human HT-29 cells assessed as necrotic cells at 20 nM incubated for 24 hrs by FITC/PI staining based flow cytometry analysis (reference value: 0.017 %). It is filed as functional.
In assay [9] the test system is HT-29. Put plainly: Induction of apoptosis in human HT-29 cells assessed as viable cells at 20 nM incubated for 24 hrs by FITC/PI staining based flow cytometry analysis (reference value: 91.6%). The following applies: read-out: Activity. The class given is functional.
Assay [10] deals with HT-29. Put plainly: Induction of cell cycle arrest in human HT-29 cells assessed as accumulation of cells at G2 phase at 10 nM incubated for 24 hrs by flow cytometry analysis (reference value: 13 %). It is filed as functional.

Description for MDA-MB-231: Antiproliferative activity against human MDA-MB-231 cells assessed as cell viability incubated for 72 hrs by MTT assay

For `COc1ccc(N(C)c2nc(/C=C/c3ccc(OC)cc3OC)nc3ccccc23)cc1`, the IC50 in the assay with MCF7 was 140 nM; on Tubulin, greater than 10000 nM; in the assay on HepG2 it was 220 nM; in the assay with HT-29 [2] it was 47 nM; in the assay with PC-3 it was 110 nM; in the assay on MDA-MB-231, 240 nM. The IC50 in the assay with RKO came to 120 nM. Further, the Kd in [1] worked out at 43300 nM.
On to `CC(=O)O[C@H]1C(=O)[C@@]2(C)[C@H]([C@H](OC(=O)c3ccccc3)[C@]3(O)C[C@H](OC(=O)[C@H](O)[C@@H](NC(=O)c4ccccc4)c4ccccc4)C(C)=C1C3(C)C)[C@]1(OC(C)=O)CO[C@@H]1C[C@@H]2O` [PACLITAXEL], for which the IC50 with MCF7 amounted to 37 nM; with HepG2, 36 nM; in the assay with HT-29 [2], 13 nM; in the assay on PC-3, 28 nM; in the assay with MDA-MB-231 it was 22 nM; in the assay on RKO, 3 nM. The Activity turned out to be 15.1% in the assay on HT-29 [3]; 22.7% in the assay on HT-29 [5]; 5.4% in the assay with HT-29 [6]; 60.2% in the assay with HT-29 [7]; 1.32% with HT-29 [8]; 22.6% in the assay on HT-29 [10]. In [4], the “Ratio IC50” value was found to be 11.29. Further, the viability at 0.02 µM with HT-29 [9] was determined as 70.6%.
Consider `CN(c1ccc(F)cc1)c1nc(/C=C/c2ccccc2)nc2ccccc12`, for which the half-maximal inhibitory concentration (IC50) was determined as 1080 nM in the assay with MCF7; 910 nM with HepG2; 530 nM in the assay with HT-29 [2]; 1110 nM in the assay on PC-3; 2850 nM with MDA-MB-231; 540 nM with RKO.
For the compound `COc1ccc(N(C)c2nc(/C=C/c3cccc(OC)c3OC)nc3ccccc23)cc1`, the IC50 in the assay with MCF7 worked out at 4090 nM; with HepG2 it was 4820 nM; with HT-29 [2] it was 880 nM; in the assay with PC-3, 1100 nM; with MDA-MB-231, 5060 nM; in the assay with RKO, 1340 nM.
With `COc1ccc(N(C)c2nc(/C=C/c3cccc(Br)c3)nc3ccccc23)cc1`, the IC50 with MCF7 is greater than 10000 nM; with HepG2, greater than 10000 nM; with HT-29 [2], greater than 10000 nM; in the assay on PC-3, 7380 nM; with MDA-MB-231, 9860 nM; with RKO, greater than 10000 nM.
With `COc1ccc(N(C)c2nc(/C=C/c3cccc(F)c3)nc3ccccc23)cc1`, the half-inhibitory concentration (IC50) in the assay with MCF7 was 260 nM; with HepG2, 240 nM; in the assay on HT-29 [2], 160 nM; in the assay on PC-3, 90 nM; in the assay on MDA-MB-231, 1250 nM; in the assay with RKO, 170 nM.
`COc1ccc(N(C)c2nc(/C=C/c3ccccc3)nc3ccccc23)cc1`: the IC50 worked out at 230 nM in the assay on MCF7; 1190 nM in the assay with HepG2; 250 nM in the assay on HT-29 [2]; 340 nM in the assay with PC-3; 1360 nM with MDA-MB-231; 250 nM in the assay on RKO.
With `COc1cc(OC)cc(N(C)c2nc(/C=C/c3ccccc3)nc3ccccc23)c1`, the IC50 with MCF7, in the assay with HepG2, in the assay with HT-29 [2], with PC-3, in the assay with MDA-MB-231 and in the assay with RKO was greater than 10000 nM each time.
With `COc1ccc(N(C)c2nc(/C=C/c3cccc([N+](=O)[O-])c3)nc3ccccc23)cc1`, the IC50 in the assay on MCF7 stood at 1470 nM; in the assay on HepG2 it was 540 nM; in the assay with HT-29 [2], 300 nM; in the assay on PC-3 it was 410 nM; in the assay on MDA-MB-231 it was 810 nM; in the assay on RKO, 490 nM.
As for `COc1cccc(OC)c1N(C)c1nc(/C=C/c2ccccc2)nc2ccccc12`, the IC50 with MCF7, in the assay with HepG2, with HT-29 [2], in the assay with PC-3, in the assay with MDA-MB-231 and in the assay with RKO was greater than 10000 nM in each case.
Regarding `COc1ccc(N(C)c2nc(/C=C/c3cccc(F)c3)nc3cccc(F)c23)cc1`, the IC50 came out at 390 nM in the assay with MCF7; 490 nM in the assay with HepG2; 210 nM with HT-29 [2]; 400 nM in the assay on PC-3; 430 nM in the assay on MDA-MB-231; 220 nM with RKO.
For `COc1ccc(N(C)c2nc(/C=C/c3ccccc3)nc3ccccc23)c(OC)c1`, the IC50 came to 1900 nM in the assay with MCF7; 8220 nM in the assay on HepG2; 750 nM with HT-29 [2]; 2750 nM with PC-3; 5730 nM in the assay with MDA-MB-231; 650 nM in the assay on RKO.
Consider `COc1ccc(N(C)c2nc(/C=C/c3cc(OC)c(OC)c(OC)c3)nc3ccccc23)cc1`, for which the IC50 in the assay on MCF7 was greater than 10000 nM; with HepG2 it was greater than 10000 nM; in the assay on HT-29 [2], greater than 10000 nM; in the assay with PC-3, 8340 nM; with MDA-MB-231, greater than 10000 nM; in the assay on RKO it was greater than 10000 nM.
For `COc1ccc(N(C)c2nc(/C=C/c3ccccc3)nc3ccccc23)cc1OC`, the IC50 amounted to 2050 nM in the assay on MCF7; 2840 nM in the assay with HepG2; 540 nM in the assay with HT-29 [2]; 2850 nM in the assay with PC-3; 7030 nM in the assay on MDA-MB-231; 630 nM in the assay with RKO.
